In patent publication US6544985B2, “Dihydro-benzo [b][1,4]diazepin-2-one derivatives” (Hoffman-La Roche Inc., priority 2001, dated 2003):

melting point	SMILES
211 °C (dec.)	CN(C)c1cc2c(cc1C(F)(F)F)NC(=O)CC(c1cccc(-c3cc(CO)on3)c1)=N2 [Example 51, 7-Dimethylamino-4-[3-(5-hydroxymethyl-isoxazol-3-yl)-phenyl]-8-trifluoromethyl-1,3-dihydro-benzo[b][1,4]diazepin-2-one]
224 to 227 °C	CN(C)c1cc2c(cc1C(F)(F)F)NC(=O)CC(c1cccc(C#N)c1)=N2 [Example 75, 3-(8-Dimethylamino-4-oxo-7-trifluoromethyl-4,5-dihydro-3H-benzo[b][1,4]diazepin-2-yl)-benzonitrile]
148 °C	CCCN(C)c1cc2c(cc1Cl)NC(=O)CC(c1cccc(-n3nncc3CN(C)C(C)C)c1)=N2 [Example 124, 8-Chloro-4-(3-{5-[(isopropyl-methyl-amino)-methyl]-[1,2,3]triazol-1-yl}-phenyl)-7-(methyl-propyl-amino)-1,3-dihydro-benzo[b][1,4]diazepin-2-one]
197 to 198 °C	CN(C)c1cc2c(cc1C(F)(F)F)NC(=O)CC(c1cccc(-c3nc(CO)co3)c1)=N2 [Example 202, 7-Dimethylamino-4-[3-(4-hydroxymethyl-oxazol-2-yl)-phenyl]-8-trifluoromethyl-1,3-dihydro-benzo[b][1,4]diazepin-2-one]
211 °C	CN(C)c1cc2c(cc1Cl)NC(=O)CC(c1cccc(-n3cc(CO)cn3)c1)=N2 [Example 67, 8-Chloro-7-dimethylamino-4-[3-(4-hydroxymethyl-pyrazol-1-yl)-phenyl]-1,3-dihydro-benzo[b][1,4]diazepin-2-one]
184 to 185 °C	O=C1CC(c2cccc(-n3nncc3CO)c2)=Nc2cc(N3CCCC3)c(F)cc2N1 [Example 58, 8-Fluoro-4-[3-(5-hydroxymethyl-[1,2,3]triazol-1-yl)-phenyl]-7-pyrrolidin-1-yl-1,3-dihydro-benzo[b][1,4]diazepin-2-one]
197 °C	CC(C)N(C)c1cc2c(cc1C(F)(F)F)NC(=O)CC(c1cccc(-n3nncc3CN(C)C)c1)=N2 [Example 150, 4-[3-(5-Dimethylaminomethyl-[1,2,3]triazol-1-yl)-phenyl]-7-(isopropyl-methyl-amino)-8-trifluoromethyl-1,3-dihydro-benzo[b][1,4]diazepin-2-one]
132 °C	CN(C)c1cc2c(cc1Cl)NC(=O)CC(c1cccc(-c3cc(CO)no3)c1)=N2 [Example 31, 8-Chloro-7-dimethylamino-4-[3-(3-hydroxymethyl-isoxazol-5-yl)-phenyl]-1,3-dihydro-benzo[b][1,4]diazepin-2-one]
206 °C	CC(C)N(C)c1cc2c(cc1C#N)NC(=O)CC(c1cccc(-n3nncc3CO)c1)=N2 [Example 109, 2-[3-(5-Hydroxymethyl-[1,2,3]triazol-1-yl)-phenyl]-8-(isopropyl-methyl-amino)-4-oxo-4,5-dihydro-3H-benzo[b][1,4]diazepine-7-carbonitrile]
218 to 219 °C	CN(C)c1cc2c(cc1C(F)(F)F)NC(=O)CC(c1cccc(-c3cocn3)c1)=N2 [Example 208, 7-Dimethylamino-4-(3-oxazol-4-yl-phenyl)-8-trifluoromethyl-1,3-dihydro-benzo[b][1,4]diazepin-2-one]
207 °C	CC(C)N(C)c1cc2c(cc1Cl)NC(=O)CC(c1cccc(-n3nncc3CO)c1)=N2 [Example 96, 8-Chloro-4-[3-(5-hydroxymethyl-[1,2,3]triazol-1-yl)-phenyl]-7-(isopropyl-methyl-amino)-1,3-dihydro-benzo[b][1,4]diazepin-2-one]
192 °C	CCCN(C)c1cc2c(cc1Cl)NC(=O)CC(c1cccc(-n3ncnc3CO)c1)=N2 [Example 162, 8-Chloro-7-(methyl-propyl-amino)-4-[3-(5-hydroxymethyl-[1,2,4]triazol-1-yl)-phenyl]-1,3-dihydro-benzo[b][1,4]diazepin-2-one]
222 °C	CC(C)CNc1cc2c(cc1Cl)NC(=O)CC(c1cccc(-n3cncn3)c1)=N2 [Example 181, 8-Chloro-7-(isobutyl-amino)-4-(3-[1,2,4]triazol-1-yl-phenyl)-1,3-dihydro-benzo[b][1,4]diazepin-2-one]
221 °C (dec.)	CN(C)c1cc2c(cc1Cl)NC(=O)CC(c1cccc(-c3csc(NC(=N)N)n3)c1)=N2 [Example 196, N-{4-[3-(7-Chloro-8-dimethylamino-4-oxo-4,5-dihydro-3H-benzo[b][1,4]diazepin-2-yl)-phenyl]-thiazol-2-yl}-guanidine]
237 °C (dec.)	CN(C)c1cc2c(cc1C(F)(F)F)NC(=O)CC(c1cccc(-c3nnc(CCO)o3)c1)=N2 [Example 207, 7-Dimethylamino-4-{3-[5-(2-hydroxy-ethyl)-[1,3,4]oxadiazol-2-yl]-phenyl}-8-trifluoromethyl-1,3-dihydro-benzo[b][1,4]diazepin-2-one]
204 °C	Cc1cc(-c2cccc(C3=Nc4cc(N(C)C)c(C)cc4NC(=O)C3)c2)on1 [Example 100, 7-Dimethylamino-8-methyl-4-[3-(3-methyl-isoxazol-5-yl)-phenyl]-1,3-dihydro-benzo[b][1,4]diazepin-2-one]
182 °C	CC(C)CNCc1cnnn1-c1cccc(C2=Nc3cc(N(C)C(C)C)c(Cl)cc3NC(=O)C2)c1 [Example 156, 8-Chloro-4-{3-[5-(isobutylamino-methyl)-[1,2,3]triazol-1-yl]-phenyl}-7-(isopropyl-methyl-amino)-1,3-dihydro-benzo[b][1,4]-diazepin-2-one]
172 to 175 °C	CN(C)c1cc2c(cc1C(F)(F)F)NC(=O)CC(c1cccc(-n3nncc3CCO)c1)=N2 [Example 85, 7-Dimethylamino-4-{3-[5-(2-hydroxy-ethyl)-[1,2,3]triazol-1-yl]-phenyl}-8-trifluoromethyl-1,3-dihydro-benzo[b][1,4]diazepin-2-one]
230 °C	CCCN(C)c1cc2c(cc1C(F)(F)F)NC(=O)CC(c1cccc(-n3nncc3CO)c1)=N2 [Example 115, 4-[3-(5-Hydroxymethyl-[1,2,3]triazol-1-yl)-phenyl]-7-(methyl-propyl-amino)-8-trifluoromethyl-1,3-dihydro-benzo[b][1,4]diazepin-2-one]
193 °C	CCCN(C)c1cc2c(cc1C(F)(F)F)NC(=O)CC(c1cccc(-c3cc(C)no3)c1)=N2 [Example 116, 4-[3-(3-Methyl-isoxazol-5-yl)-phenyl]-7-(methyl-propyl-amino)-8-trifluoromethyl-1,3-dihydro-benzo[b][1,4]diazepin-2-one]
210 to 212 °C	CN(C)c1cc2c(cc1C(F)(F)F)NC(=O)CC(c1cccc(-n3ccnn3)c1)=N2 [Example 87, 7-Dimethylamino-4-(3-[1,2,3]triazol-1-yl-phenyl)-8-trifluoromethyl-1,3-dihydro-benzo[b][1,4]diazepin-2-one]
213 °C	CC(C)CN(C)c1cc2c(cc1Cl)NC(=O)CC(c1cccc(-n3cncn3)c1)=N2 [Example 173, 8-Chloro-7-(isobutyl-methyl-amino)-4-(3-[1,2,4]triazol-1-yl-phenyl)-1,3-dihydro-benzo[b][1,4]diazepin-2-one]
164 °C	CC(C)CN(C)c1cc2c(cc1Cl)NC(=O)CC(c1cccc(-n3ncnc3CN3CCCC3)c1)=N2 [Example 165, 8-Chloro-7-(isobutyl-methyl-amino)-4-[3-(5-pyrrolidin-1-ylmethyl-[1,2,4]triazol-1-yl)-phenyl]-1,3-dihydro-benzo[b][1,4]diazepin-2-one]
